Test: Solubility / dispersibility of the product in water
Assay type: physicochemical
Conditions: general statement in the description
Procedure: A two liter, three necked flask equipped with a condenser, stirrer, thermometer, and distillation head was charged with (i) 136 grams of methyltrimethoxysilane, (ii) 186 grams of monoehtylene glycol, and (iii) 0.6 grams of tetra isopropyltitanate was added into the mixture to facilitate a transesterification reaction to provide a non-ionic water soluble organosilane. This mixture was heated to 120° C. for two hours, during which 92 grams of methanol were recovered after which the reaction was deemed complete.
A two liter, three necked flask equipped with a condenser, stirrer, thermometer, and distillation head was charged with (i) 164 grams of methyltrimethoxysilane, (ii) 186 grams of monoehtylene glycol, and (iii) 0.6 grams of tetra isopropyltitanate was added into the mixture to facilitate a transesterification reaction to provide a non-ionic water soluble organosilane. This mixture was heated to 120° C. for two hours, during which 95 grams of methanol were recovered after which the reaction was deemed complete.

CO[Si](C)(OC)OC [methyltrimethoxysilane (MTMS), methyltrimethoxysilane]
water solubility, in words (description): insoluble in water

Reference: patent US20220017778A1, “Methods of Treating Inorganic Surfaces” (ZYDEX INC., priority 2018, published 2022)
